Results on 2 molecules are retold here after patent US20240199614A1, “MACROCYCLIC EGFR INHIBITORS FOR THE TREATMENT OF CANCER” (Theseus Pharmaceuticals, Inc., priority 2021, published 2024).

Where two headings read alike, the source gives them in different places.

The conditions of data set [1]: amide bond, 15-membered ring, TBTU/Et3N, 20.0 °C.
The conditions of data set [2]: amide bond, TBTU, 20.0 °C.

Turning to `Cc1cc2cc(n1)-c1cnn(C)c1N1CC(C1)OCCN1/C(=N/C2=O)Nc2ccc(Br)cc21`, the ring closure, isolated yield in data set [1] (from Cc1cc(C(=O)O)cc(-c2cnn(C)c2N2CC(OCCn3c(N)nc4ccc(Br)cc43)C2)n1, DCM, 3.99 mM) worked out at 60.3%. The molecule further showed a ring closure, yield of all isomers in data set [2] (from Cc1cc(C(=O)O)cc(-c2cnn(C)c2N2CC(OCCn3c(N)nc4ccc(Br)cc43)C2)n1, TEA, DCM, 3.99 mM, 1.0 h) of 60.3%.
For `Cc1cc2cc(n1)-c1cnn(C)c1CCCO[C@@H](C)CN1/C(=N/C2=O)Nc2ccc(Br)cc21`, the ring closure, isolated yield in data set [1] (from Cc1cc(C(=O)O)cc(-c2cnn(C)c2CCCO[C@@H](C)Cn2c(N)nc3ccc(Br)cc32)n1, DMF, 190.0 mM) was determined as 28.8%. The molecule further gave a ring closure, yield of all isomers in data set [2] (from Cc1cc(C(=O)O)cc(-c2cnn(C)c2CCCO[C@@H](C)Cn2c(N)nc3ccc(Br)cc32)n1, Et3N, DMF, 190.0 mM, 0.5 h) of 28.8%.
